Assay results published in US20180369143A1, “METAL COMPLEXED THERAPEUTIC AGENTS AND LIPID-BASED NANOPARTICULATE FORMULATIONS THEREOF” (BRITISH COLUMBIA CANCER AGENCY BRANCH, priority 2015, published 2018).
Converted amounts (≈) assume the structure as drawn. “Also recorded” adds a separate entry of the source.

Assays:
U87 glioblastoma cells = test: cells; assay type: cell-based; conditions: for IC50: Homo sapiens, U-87 MG, absence of copper, 72 h
Description: For studies with DDC, the cell lines U87, and A549 were obtained from ATCC, HBEpC (Human Bronchial Epithelial Cells) was obtained from Cell Applications (San Deigo, Calif.) and MDA-231-BR was from the NIH/NCI. The U251MG glioblastoma cell line (formerly known as U-373 MG) was originally obtained from American Type Culture Collection (Manassas, Va.) and was used for a maximum of fifteen passages. Subsequently, the U251MG was obtained from Sigma-Aldrich (product number 09063001). […] Both cell lines are now being maintained as separate lines U251MG^O (original line) and U251MG^SA (Sigma-Aldrich). U87, U251MG^O, A549 and MDA231-BR cells were maintained in DMEM (Gibco) supplemented with 2 mM L-glutamine (Gibco) and 10% fetal bovine serum (Gibco). HBEpC were grown in bronchial/tracheal epithelial growth medium obtained from Cell Applications and were used for a maximum of three passages. All cells were maintained at 37° C. and 5% CO2 The cells were seeded into 384 well plates and allowed to grow for 24 hrs and then treated as specified for 72 hours. To assess the cytotoxic effects of the indicated compounds in adherent cell lines, the cells were stained with Hoescht 33342 and ethidium homodimer I for total and dead cell counts, respectively. Twenty minutes later, the cells were imaged using an In Cell Analyzer 2200 and cell viability was measured based on viable nuclei count. For the suspension cell line MV-4-11, cells were incubated with the PrestoBlue reagent (Life Technologies) at 37° C. and 5% CO2 for 1 hour, after which cell viability was evaluated based on metabolic activity as measured with the FLUOstar OPTIMA microplate reader (BMG Labtech).
Cytotoxicity results were obtained with an IN CELL™ Analyzer in U87 glioblastoma cells. Cell viability was assessed based on detection of plasma membrane integrity 72 hours following treatment. Total and dead cell counts were determined using Hoeschst 33342 and ethidium homodimer staining.

[1] = Solubility of quercetin in water and HEPES buffer saline; assay type: physicochemical
Description: (or 22° C.) for 60 minutes in 2 mL of the respective buffers. […] The time points for dissolution were 5, 10, 15, 30 and 60 minutes.
(38 μg/mL). A supersaturated solution of quercetin-HBS remained stable over a one-hour period once removed from heat.

[2] = tested on: H460 (non-small cell lung cancer); test: 72-hour cytotoxicity assay, H460 cells; assay type: cell-based
MV-4-11 (leukemia) cells = test: 72 h cytotoxicity (PrestoBlue), MV-4-11 cells; assay type: cell-based, human
Description: (§1) For studies with DDC, the cell lines U87, and A549 were obtained from ATCC, HBEpC (Human Bronchial Epithelial Cells) was obtained from Cell Applications (San Deigo, Calif.) and MDA-231-BR was from the NIH/NCI. The U251MG glioblastoma cell line (formerly known as U-373 MG) was originally obtained from American Type Culture Collection (Manassas, Va.) and was used for a maximum of fifteen passages. Subsequently, the U251MG was obtained from Sigma-Aldrich (product number 09063001). […] Both cell lines are now being maintained as separate lines U251MG^O (original line) and U251MG^SA (Sigma-Aldrich). […] Twenty minutes later, the cells were imaged using an In Cell Analyzer 2200 and cell viability was measured based on viable nuclei count. For the suspension cell line MV-4-11, cells were incubated with the PrestoBlue reagent (Life Technologies) at 37° C. and 5% CO2 for 1 hour, after which cell viability was evaluated based on metabolic activity as measured with the FLUOstar OPTIMA microplate reader (BMG Labtech). […]
(§2) The anticancer activity of clioquinol (CQ) in cancer lines through copper dependent and independent pathways was examined. […] Cell viability was assessed based on loss of plasma membrane integrity 72 hours following treatment. Total cell count and dead cell count were determined using Hoechst 33342 and ethidium homodimer staining, respectively. […]

[3] = tested on: MV-4-11, HCT116WT, HCT116B18 and HCT116B46 cells; test: Cytotoxicity IC50 comparison of CX5461 with metal salts in a cell panel; assay type: cell-based
Description: as §1, with “(Sigma-Aldrich). U87, U251MG^O, A549 and MDA231-BR cells were maintained in DMEM (Gibco) supplemented with 2 mM L-glutamine (Gibco) and 10% fetal bovine serum (Gibco). HBEpC were grown in bronchial/tracheal epithelial growth medium obtained from Cell Applications and were used for a maximum of three passages.” for “(Sigma-Aldrich).”

[4] = Plasma elimination of CX5461, free versus liposomal; assay type: in vivo; conditions: within 1 hour of injection
Description: Cu(DDC)2 was measured by using Cu as a surrogate marker. Samples were diluted in 0.1% HNO3 and subsequently the Cu concentration was measured using AAS (AAnalyst600, Perkin Elmer) as described above. Plasma Cu was corrected using untreated CD-1 mouse plasma as a blank. […] All other compounds were measured using HPLC as summarized below using a Waters Alliance HPLC Module 2695 and photodiode array detector model 996 and Empower 2 Software. […] Similarly, the quantification of CX5461 was performed in acidified methanol to dissociate the complex and CX5461 was measured at 300 nm following separation on a Luna C18 column (5 μm, 4.6×150 mm). The mobile phase contained a 1:1.2 mixture of 0.1% TFA in water and 0.1% TFA in methanol. A 5 μL sample volume was injected, the flow rate was set at 1 mL/min and the column temperature was 35° C.

[5] = tested on: MDA-231BR (triple negative breast cancer line); test: 72 h cytotoxicity, IN CELL Analyzer, MDA-231BR cells; assay type: cell-based; conditions: copper+DDC
Description: (§3) For studies with DDC, the cell lines U87, and A549 were obtained from ATCC, HBEpC (Human Bronchial Epithelial Cells) was obtained from Cell Applications (San Deigo, Calif.) and MDA-231-BR was from the NIH/NCI. The U251MG glioblastoma cell line (formerly known as U-373 MG) was originally obtained from American Type Culture Collection (Manassas, Va.) and was used for a maximum of fifteen passages. Subsequently, the U251MG was obtained from Sigma-Aldrich (product number 09063001). […] Both cell lines are now being maintained as separate lines U251MG^O (original line) and U251MG^SA (Sigma-Aldrich). U87, U251MG^O, A549 and MDA231-BR cells were maintained in DMEM (Gibco) supplemented with 2 mM L-glutamine (Gibco) and 10% fetal bovine serum (Gibco). HBEpC were grown in bronchial/tracheal epithelial growth medium obtained from Cell Applications and were used for a maximum of three passages. […] Twenty minutes later, the cells were imaged using an In Cell Analyzer 2200 and cell viability was measured based on viable nuclei count. For the suspension cell line MV-4-11, cells were incubated with the PrestoBlue reagent (Life Technologies) at 37° C. and 5% CO2 for 1 hour, after which cell viability was evaluated based on metabolic activity as measured with the FLUOstar OPTIMA microplate reader (BMG Labtech).

U251 (glioblastoma line) = test: 72 h cytotoxicity, IN CELL Analyzer, U251 cells; assay type: cell-based, human
Description: The U251MG glioblastoma cell line (formerly known as U-373 MG) was originally obtained from American Type Culture Collection (Manassas, Va.) and was used for a maximum of fifteen passages. […] U87, U251MG^O, A549 and MDA231-BR cells were maintained in DMEM (Gibco) supplemented with 2 mM L-glutamine (Gibco) and 10% fetal bovine serum (Gibco). […] All cells were maintained at 37° C. and 5% CO2 The cells were seeded into 384 well plates and allowed to grow for 24 hrs and then treated as specified for 72 hours. To assess the cytotoxic effects of the indicated compounds in adherent cell lines, the cells were stained with Hoescht 33342 and ethidium homodimer I for total and dead cell counts, respectively. Twenty minutes later, the cells were imaged using an In Cell Analyzer 2200 and cell viability was measured based on viable nuclei count.

[6] = tested on: normal human bronchial epithelial cells HBEpC; test: 72 h cytotoxicity, normal bronchial epithelial cells; assay type: cell-based
Description: as §3

A549 (lung cancer line) = test: 72 h cytotoxicity, A549 cells; assay type: cell-based, human
Description: For studies with DDC, the cell lines U87, and A549 were obtained from ATCC, HBEpC (Human Bronchial Epithelial Cells) was obtained from Cell Applications (San Deigo, Calif.) and MDA-231-BR was from the NIH/NCI. The U251MG glioblastoma cell line (formerly known as U-373 MG) was originally obtained from American Type Culture Collection (Manassas, Va.) and was used for a maximum of fifteen passages. Subsequently, the U251MG was obtained from Sigma-Aldrich (product number 09063001). […] Both cell lines are now being maintained as separate lines U251MG^O (original line) and U251MG^SA (Sigma-Aldrich). […] Twenty minutes later, the cells were imaged using an In Cell Analyzer 2200 and cell viability was measured based on viable nuclei count. For the suspension cell line MV-4-11, cells were incubated with the PrestoBlue reagent (Life Technologies) at 37° C. and 5% CO2 for 1 hour, after which cell viability was evaluated based on metabolic activity as measured with the FLUOstar OPTIMA microplate reader (BMG Labtech).
as §2

[7] = Aqueous solubility of metal complexes (qualitative); assay type: physicochemical
[8] = tested on: A2780-S (human ovarian carcinoma, platinum sensitive); test: 72 h cytotoxicity, IN CELL Analyzer, A2780-S cells; assay type: cell-based
Description: FIG. 26 Clioquinol metal complex cytotoxicity in A2780-S (ovarian cancer) cells. (A) Cytotoxicity curves for CQ (-●-), Cu(CQ)2 (-▪-) and Zn(CQ)2 (-♦-) were obtained using the INCELL analyzer where viability was assessed based on loss of plasma membrane integrity 72 hours following treatment; i.e., total cell count and dead cell count were determined using Hoechst 33342 and ethidium homodimer staining, respectively. Results are given as mean ±SEM (B) IC50 values of CQ and metal complexes in A2780-S (IC50±95% CI).
The anticancer activity of clioquinol (CQ) in cancer lines through copper dependent and independent pathways was examined. Both CQ (-●-) and Cu(CQ)2 (-▪-) were dissolved in DMSO and diluted to a final concentration of <0.5% (at higher concentrations (>100 μM) of Cu(CQ)2, precipitated drug could be seen under the microscope). A2780-S (human ovarian carcinoma, platinum sensitive), A2780-CP (human ovarian carcinoma, platinum insensitive) as well as A549 (human lung cancer), U251 (human glioblastoma) cytotoxicity curves (FIG. 22 A-D) were obtained with the IN CELL Analyzer 2200. Cell viability was assessed based on loss of plasma membrane integrity 72 hours following treatment. Total cell count and dead cell count were determined using Hoechst 33342 and ethidium homodimer staining, respectively. […]

[9] = tested on: A2780-CP (human ovarian carcinoma, platinum insensitive); test: 72 h cytotoxicity, IN CELL Analyzer, A2780-CP cells; assay type: cell-based
Description: The anticancer activity of clioquinol (CQ) in cancer lines through copper dependent and independent pathways was examined. Both CQ (-●-) and Cu(CQ)2 (-▪-) were dissolved in DMSO and diluted to a final concentration of <0.5% (at higher concentrations (>100 μM) of Cu(CQ)2, precipitated drug could be seen under the microscope). A2780-S (human ovarian carcinoma, platinum sensitive), A2780-CP (human ovarian carcinoma, platinum insensitive) as well as A549 (human lung cancer), U251 (human glioblastoma) cytotoxicity curves (FIG. 22 A-D) were obtained with the IN CELL Analyzer 2200. Cell viability was assessed based on loss of plasma membrane integrity 72 hours following treatment. Total cell count and dead cell count were determined using Hoechst 33342 and ethidium homodimer staining, respectively. The CQ cytotoxicity curve in MV-4-11 (human leukemia) was generated using PrestoBlue reagent to establish cell viability through metabolic activity.

CCN(CC)C(=S)S [DDC, Diethyldithiocarbamate]
IC50 (U87 glioblastoma cells): > 10000 nM

O=c1c(O)c(-c2ccc(O)c(O)c2)oc2cc(O)cc(O)c12 [quercetin, Quercetin]
solubility at 60 min ([1]; 60 °C, water, thermodynamic from solid): 12.3 µg/mL (≈ 40.8 µM) | solubility ([1]; 60 min): 38 µg/mL (≈ 126 µM) | solubility ([1]; HBS, room temperature): 7.78 µg/mL (≈ 25.7 µM)

Cc1cnc(CNC(=O)c2c(=O)c3ccc(N4CCCN(C)CC4)nc3n3c2sc2ccccc23)cn1 [CX5461]
effect of equimolar copper on anti-cancer activity [2]: does not alter | effect of equimolar copper on anti-cancer activity (MV-4-11 (leukemia) cells; 72 h): does not alter | activity (IC50) versus low pH preparation of metal-free compound ([3]; combined with CuSO4, dissolution at pH 7.4): statistically similar | activity (IC50) versus low pH preparation of metal-free compound ([3]; combined with ZnSO4, dissolution at pH 7.4): statistically similar | compound removed from circulation [4]: 96%

CCN(CC)C(=S)[S-].CCN(CC)C(=S)[S-].[Cu+2] [Cu(DDC)2]
IC50 [5]: 329 nM | IC50 (U251 (glioblastoma line); copper+DDC): 345 nM | activity against normal cells [6]: little activity | IC50 (A549 (lung cancer line); copper+DDC): 880 nM | solubility in water / aqueous solution [7]: highly insoluble; also recorded: almost completely insoluble

Oc1c(I)cc(Cl)c2cccnc12 [CQ, Clioquinol]
copper dependence of CQ activity [8]: copper dependant | copper dependence of CQ activity (U251 (glioblastoma line)): copper independent | copper dependence of CQ activity (MV-4-11 (leukemia) cells): copper independent | copper dependence of CQ activity [9]: copper dependant | copper dependence of CQ activity (A549 (lung cancer line)): copper dependant

CCN(CC)C(=S)SSC(=S)N(CC)CC [DSF, Disulfiram]
shift in cytotoxicity in the presence of copper (U87 glioblastoma cells): 2 orders of magnitude | IC50 (U87 glioblastoma cells): > 10000 nM
